Measurements published in patent US4206225A, “2,10-Disubstituted dibenzo[b,d]pyrans and benzo[c]quinolines” (priority 1978, dated 1980).
Like-named read-outs stand apart in the source and are kept apart here.

Assays:
[1] = tested on: phenylbenzoquinone irritant-induced writhing in mice; assay: Suppression of phenylbenzoquinone (PBQ) irritant-induced writhing; format: in vivo, mice (Carworth Farms CF-1); conditions: Mus musculus, read-out: ED50 in PBQ Writhing Test
Procedure: The analgesic properties of the compounds of this invention are determined by tests using thermal nociceptive stimuli, such as the mouse tail flick procedure, or chemical nociceptive stimuli, such as measuring the ability of a compound to suppress phenylbenzoquinone irritant-induced writhing in mice. These tests and others are described below.
Suppression of Phenylbenzoquinone Irritant-Induced Writhing
Groups of 5 Carworth Farms CF-1 mice are pretreated subcutaneously or orally with saline, morphine, codine or the test compound. Twenty minutes (if treated subcutaneously) or fifty minutes (if treated orally) later, each group is treated with intraperitoneal injection of phenylbenzoquinone, an irritant known to produce abdominal contractions. The mice are observed for 5 minutes for the presence or absence of writhing starting 5 minutes after the injection of the irritant. MPE50 's of the drug pretreatments in blocking writhing are ascertained.
(§1) Results of the above tests are recorded as percent maximum possible effect (% MPE). The % MPE of each group is statistically compared to the % MPE of the standard and the predrug control values. The % MPE is calculated as follows: [formula]
(§2) The analgesic activity is reported in terms of MPE50, the dose at which half of the maximal possible analgesic effect is observed in a given test.
The analgesic activity of several compounds of the invention in the above described test for suppresion of phenylbenzoquinone (PBQ) irritant-inducedwrithing are set forth below in Table I.

[2] = tested on: thermal nociceptive stimulus (hot plate, 57° C.) in mice; assay: Mouse hot plate analgesic testing; format: in vivo; conditions: s.c.
Procedure: (a) Mouse Hot Plate Analgesic Testing
The method used is modified after Woolfe and MacDonald, J. Pharmacol. Exp. Ther., 80, 300-307 (1944). A controlled heat stimulus is applied to the feet of mice on a 1/8" think aluminum plate. A 250 watt reflector infrared heat lamp is place under the bottom of the aluminum plate. A thermal regulator, connected to thermistors on the plate surface, programs the heat lamp to maintain a constant temperature of 57° C. Each mouse dropped into a glass cylinder (61/2" diameter) resting on the hot plate, and timing is begun when the animal's feet touch the plate. At 0.5 and 2 hours after treatment with the test compound the mouse is observed for the first "flicking" movements of one or both hind feet or until 10 seconds elapse without such movements. Morphine has an MPE50 =4-5.6 mg./kg. (s.c.).
as §1, §2

[3] = tested on: thermal nociceptive stimulus (heat applied to the tail) in mice; assay: Mouse tail flick analgesic testing; format: in vivo; conditions: s.c.
Description: (b) Mouse Tail Flick Analgesic Testing
Tail flick testing in mice is modified after D'Amour and Smith, J. Pharmacol. Exp. Ther., 72, 74-79 (1941), using controlled high intensity heat applied to the tail. Each mouse is placed in a snug-fitting metal cylinder, with the tail protruding through one end. This cylinder is arranged so that the tail lies flat over a concealed heat lamp. At the onset of testing, an aluminum flag over the lamp is drawn back, allowing the light beam to pass through the slit and focus onto the end of the tail. A timer is simultaneously activated. The latency of a sudden flick of the tail is ascertained. Untreated mice usually react within 3-4 seconds after exposure to the lamp. The end point for protection is 10 seconds. Each mouse is tested at 0.5 and 2 hours after treatment with morphine and the test compound. Morphine has an MPE5 50 of 3.2-5.6 mg./kg. (s.c.).
as §1, §2

rabbits = conditions: 20 mg./kg.; cited from earlier work
animal pharmacology = conditions: in vivo; cited from earlier work
[4] = oral, fifty minutes pretreatment
[5] = sc, subcutaneous, twenty minutes pretreatment

CC(CCCc1ccccc1)c1cc2c(cc1O)C1=C(CCCC1O)C(C)(C)O2 (racemic) [Example 21, dl-7,8,9,10-Tetrahydro-2,10α-dihydroxy-6,6-dimethyl-3-(1-methyl-4-phenylbutyl)-6H-dibenzo[b,d]pyran]
ED50 [1, 4]: 10 mg/kg

CC(CCCc1ccccc1)c1cc2c(cc1O)[C@@H]1C(=O)CCC[C@@H]1C(C)(C)O2 (relative stereo) [Example 9A, dl-cis-6a,7,8,9,10,10a-Hexahydro-2-hydroxy-6,6-dimethyl-3-(1-methyl-4-phenylbutyl)-10-oxo-6H-dibenzo[b,d]pyran]
ED50 [1, 5]: 10 to 32 mg/kg

CN1CC[C@]23c4c5ccc(O)c4O[C@H]2[C@@H](O)C=C[C@H]3[C@H]1C5 [Morphine]
MPE50 [2]: 4 to 5.6 mg/kg
MPE50 (printed MPE5 50) [3]: 3.2 to 5.6 mg/kg

CC(CCCc1ccccc1)c1cc2c(cc1O)C1=C(CCCC1)C(C)(C)O2 (racemic) [Example 16, dl-7,8,9,10-Tetrahydro-2-hydroxy-6,6-dimethyl-3-(1-methyl-4-phenylbutyl)-6H-dibenzo[b,d]pyran]
ED50 [1, 4]: 10 mg/kg

CCCCCc1cc2c(cc1O)C1=C(CCC(C)C1)C(C)(C)O2 (centres unmarked) [6,7,8,9-tetrahydro-2-hydroxy-3-n-amyl-6,6,9-trimethyldibenzo[b,d]pyran]
activity in rabbits (rabbits): inactive

CCCCCc1cc(O)c2c(c1)N(C)C(C)(C)C1=C2CC(C)CC1 (centres unmarked) [7,8,9,10-tetrahydro-1-hydroxy-5,6,6,9-tetramethyl-3-n-pentylphenanthridine]
activity in animal pharmacology (animal pharmacology): completely inert

CC(CCCc1ccccc1)c1cc2c(cc1O)C1C(O)CCCC1C(C)(C)O2 (mixture of isomers) [Example 11, dl-cis-6a,7,8,9,10a-Hexahydro-2,10-dihydroxy-6,6-dimethyl-3-(1-methyl-4-phenylbutyl)-6H-dibenzo[b,d]pyran]
ED50 [1, 5]: 27 mg/kg
